Measurements as given in ChEMBL document CHEMBL3856205, “Synthesis and biological evaluation of novel 4-hydroxytamoxifen analogs as estrogen-related receptor gamma inverse agonists” (Eur J Med Chem, 2016).

Assays:
[1] = target: T1, Estrogen-related receptor gamma (Homo sapiens, UniProt P62508)
T1 sequence (P62508 whole entry): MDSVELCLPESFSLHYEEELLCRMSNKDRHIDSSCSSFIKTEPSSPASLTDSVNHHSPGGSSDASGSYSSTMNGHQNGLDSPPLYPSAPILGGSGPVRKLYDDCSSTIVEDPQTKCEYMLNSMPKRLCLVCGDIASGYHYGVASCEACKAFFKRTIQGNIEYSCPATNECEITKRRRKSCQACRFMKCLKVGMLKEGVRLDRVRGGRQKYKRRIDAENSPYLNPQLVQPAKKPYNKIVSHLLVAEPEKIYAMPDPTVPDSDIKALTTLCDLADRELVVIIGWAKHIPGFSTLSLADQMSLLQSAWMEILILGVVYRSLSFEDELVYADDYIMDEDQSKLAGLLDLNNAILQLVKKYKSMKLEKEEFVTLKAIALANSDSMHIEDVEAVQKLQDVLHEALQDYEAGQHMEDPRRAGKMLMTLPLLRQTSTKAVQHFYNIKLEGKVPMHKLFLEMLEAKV
Description: Inverse agonist activity at ERRgamma (unknown origin) expressed in human AD293 cells after 24 hrs by beta-galactosidase/luciferase reporter gene assay

CYP2C9 = CYP2C9 (Homo sapiens, UniProt P11712); assay: Inhibition of CYP2C9 in human liver microsomes assessed as remaining activity by measuring tolbutamide 4-hydroxylase activity at 10 uM pre-incubated for 5 mins followed by NADPH regenerating system addition by LC-MS/MS analysis relative to control; format: ADME; details: probe tolbutamide (4-hydroxylation), read-out: Activity
Chain of CYP2C9 (P11712 whole entry): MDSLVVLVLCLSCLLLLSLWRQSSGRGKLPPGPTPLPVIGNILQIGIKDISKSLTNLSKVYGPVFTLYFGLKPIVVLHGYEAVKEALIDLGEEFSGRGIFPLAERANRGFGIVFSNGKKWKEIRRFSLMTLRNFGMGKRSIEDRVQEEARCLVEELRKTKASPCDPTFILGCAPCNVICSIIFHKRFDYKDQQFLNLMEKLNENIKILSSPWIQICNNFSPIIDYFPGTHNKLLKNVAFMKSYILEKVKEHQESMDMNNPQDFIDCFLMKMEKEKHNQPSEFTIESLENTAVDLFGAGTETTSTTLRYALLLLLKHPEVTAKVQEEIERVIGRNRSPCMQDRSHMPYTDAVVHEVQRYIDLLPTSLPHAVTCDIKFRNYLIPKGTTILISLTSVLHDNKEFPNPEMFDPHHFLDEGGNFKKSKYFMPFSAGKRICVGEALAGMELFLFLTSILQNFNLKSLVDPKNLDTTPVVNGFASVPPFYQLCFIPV

CYP2D6 = CYP2D6 (Homo sapiens, UniProt P10635); assay: Inhibition of CYP2D6 in human liver microsomes assessed as remaining activity by measuring dextromethorphan O-demethylase activity at 10 uM pre-incubated for 5 mins followed by NADPH regenerating system addition by LC-MS/MS analysis relative to control; format: ADME; details: probe dextromethorphan (O-demethylation), read-out: Activity
Chain of CYP2D6 (P10635 whole entry): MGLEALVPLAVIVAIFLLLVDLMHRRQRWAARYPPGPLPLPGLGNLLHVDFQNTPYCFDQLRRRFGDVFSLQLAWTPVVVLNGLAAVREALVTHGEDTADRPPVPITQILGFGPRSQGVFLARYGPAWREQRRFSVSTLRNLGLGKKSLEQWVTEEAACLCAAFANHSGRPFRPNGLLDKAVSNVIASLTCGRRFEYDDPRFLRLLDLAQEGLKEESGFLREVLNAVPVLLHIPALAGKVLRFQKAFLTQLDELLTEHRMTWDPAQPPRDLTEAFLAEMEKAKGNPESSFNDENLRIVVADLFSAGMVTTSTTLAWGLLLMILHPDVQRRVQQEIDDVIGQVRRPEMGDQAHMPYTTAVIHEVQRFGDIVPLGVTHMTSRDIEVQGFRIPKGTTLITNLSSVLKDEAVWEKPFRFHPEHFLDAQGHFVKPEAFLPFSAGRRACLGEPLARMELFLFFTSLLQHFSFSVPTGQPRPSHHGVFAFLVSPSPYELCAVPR

in vitro [2] = details: mouse, liver microsomes
Description: Metabolic stability in mouse liver microsomes assessed as compound remaining at 1 uM after 30 mins in presence of NADPH by LC-MS/MS analysis

CYP3A4 = CYP3A4 (Homo sapiens, UniProt P08684); assay: Inhibition of CYP3A4 in human liver microsomes assessed as remaining activity by measuring midazolam 1'-hydroxylase activity at 10 uM pre-incubated for 5 mins followed by NADPH regenerating system addition by LC-MS/MS analysis relative to control; format: ADME; details: probe midazolam (1'-hydroxylation), read-out: Activity
Chain of CYP3A4 (P08684 whole entry): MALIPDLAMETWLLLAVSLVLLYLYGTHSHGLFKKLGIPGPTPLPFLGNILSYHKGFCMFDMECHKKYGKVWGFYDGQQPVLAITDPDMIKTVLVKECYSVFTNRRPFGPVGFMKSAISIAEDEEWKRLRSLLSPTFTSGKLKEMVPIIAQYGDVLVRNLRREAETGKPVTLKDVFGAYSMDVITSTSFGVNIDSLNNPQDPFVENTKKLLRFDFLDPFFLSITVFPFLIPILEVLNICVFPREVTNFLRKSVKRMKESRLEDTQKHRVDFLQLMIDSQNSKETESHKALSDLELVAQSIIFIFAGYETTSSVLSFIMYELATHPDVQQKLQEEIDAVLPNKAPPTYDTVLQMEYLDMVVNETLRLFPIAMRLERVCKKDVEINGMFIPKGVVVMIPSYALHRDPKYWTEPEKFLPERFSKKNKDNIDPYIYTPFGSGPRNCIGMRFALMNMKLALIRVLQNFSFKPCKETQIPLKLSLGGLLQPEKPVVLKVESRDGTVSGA

[3] = target: T1, Estrogen-related receptor gamma; remark: listed apart in the source
Description: Inhibition of fluorescien-conjugated coactivator PGC1a binding to GST-tagged human ERRgamma LBD after 1 hr by TR-FRET assay

[4] = Permeability of the compound in PBS at pH 7.4 at 10 uM after 5 hrs by LC-MS/MS analysis; format: ADME; details: not told, read-out: permeability
[5] = target: T2, Steroid hormone receptor ERR1 (Homo sapiens, UniProt P11474); assay: Inhibition of fluorescien-conjugated coactivator PGC1a binding to ERRalpha (unknown origin) after 1 hr by TR-FRET assay
T2 sequence (P11474 whole entry): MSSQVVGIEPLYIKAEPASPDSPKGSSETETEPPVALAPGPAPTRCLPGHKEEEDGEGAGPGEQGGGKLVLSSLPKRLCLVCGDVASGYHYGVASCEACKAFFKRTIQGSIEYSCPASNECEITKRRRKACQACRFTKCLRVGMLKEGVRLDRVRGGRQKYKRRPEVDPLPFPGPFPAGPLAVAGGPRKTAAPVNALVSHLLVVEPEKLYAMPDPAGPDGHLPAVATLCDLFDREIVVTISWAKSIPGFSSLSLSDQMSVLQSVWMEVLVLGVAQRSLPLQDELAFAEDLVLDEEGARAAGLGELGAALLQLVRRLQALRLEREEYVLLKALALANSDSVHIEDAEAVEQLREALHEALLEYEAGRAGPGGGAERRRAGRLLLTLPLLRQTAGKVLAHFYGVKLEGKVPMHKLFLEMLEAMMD

in vitro [6] = details: human, liver microsomes
Description: Metabolic stability in human liver microsomes assessed as compound remaining at 1 uM after 30 mins in presence of NADPH by LC-MS/MS analysis

[7] = Metabolic stability in dog liver microsomes assessed as compound remaining at 1 uM after 30 mins in presence of NADPH by LC-MS/MS analysis; format: ADME, Canis lupus familiaris; details: read-out: Stability
CYP2C19 = CYP2C19 (Homo sapiens, UniProt P33261); assay: Inhibition of CYP2C19 in human liver microsomes assessed as remaining activity by measuring S-mephenytoin 4-hydroxylase activity at 10 uM pre-incubated for 5 mins followed by NADPH regenerating system addition by LC-MS/MS analysis relative to control; format: ADME; details: probe S-mephenytoin (4-hydroxylation), read-out: Activity
Chain of CYP2C19 (P33261 whole entry): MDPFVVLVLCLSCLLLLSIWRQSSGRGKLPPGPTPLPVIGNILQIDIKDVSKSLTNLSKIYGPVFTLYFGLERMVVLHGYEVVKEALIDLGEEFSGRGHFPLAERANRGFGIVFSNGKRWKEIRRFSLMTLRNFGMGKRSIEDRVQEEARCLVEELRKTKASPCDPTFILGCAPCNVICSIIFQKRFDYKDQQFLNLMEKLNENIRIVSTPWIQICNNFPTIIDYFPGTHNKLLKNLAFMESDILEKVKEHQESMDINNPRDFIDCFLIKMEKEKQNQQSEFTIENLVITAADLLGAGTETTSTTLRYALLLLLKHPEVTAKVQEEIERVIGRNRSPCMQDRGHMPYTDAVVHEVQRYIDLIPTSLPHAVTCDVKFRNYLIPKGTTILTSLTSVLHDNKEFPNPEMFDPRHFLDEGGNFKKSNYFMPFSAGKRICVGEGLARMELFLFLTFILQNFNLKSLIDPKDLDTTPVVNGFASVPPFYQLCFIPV

in vitro [8] = details: rat, liver microsomes
Description: Metabolic stability in rat liver microsomes assessed as compound remaining at 1 uM after 30 mins in presence of NADPH by LC-MS/MS analysis

[9] = target: T3, Steroid hormone receptor ERR2 (Homo sapiens, UniProt O95718); assay: Inhibition of fluorescien-conjugated coactivator PGC1a binding to ERRbeta (unknown origin) after 1 hr by TR-FRET assay
T3 sequence (O95718 whole entry): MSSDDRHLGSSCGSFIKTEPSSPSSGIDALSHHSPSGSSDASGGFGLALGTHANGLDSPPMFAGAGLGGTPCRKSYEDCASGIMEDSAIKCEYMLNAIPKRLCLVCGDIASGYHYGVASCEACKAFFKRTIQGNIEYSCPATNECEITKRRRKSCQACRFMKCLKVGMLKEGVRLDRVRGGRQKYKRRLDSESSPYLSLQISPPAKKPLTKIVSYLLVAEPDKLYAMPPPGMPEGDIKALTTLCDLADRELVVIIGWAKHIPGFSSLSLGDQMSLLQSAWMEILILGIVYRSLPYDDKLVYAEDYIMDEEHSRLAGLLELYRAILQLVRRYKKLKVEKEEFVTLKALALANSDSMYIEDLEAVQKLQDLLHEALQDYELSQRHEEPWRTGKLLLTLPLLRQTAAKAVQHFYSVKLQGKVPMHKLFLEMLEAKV

CYP1A2 = target: T4, CYP1A2 (Homo sapiens, UniProt P05177); assay: Inhibition of CYP1A2 in human liver microsomes assessed as remaining activity by measuring phenacetin O-deethylase activity at 10 uM pre-incubated for 5 mins followed by NADPH regenerating system addition by LC-MS/MS analysis relative to control; format: ADME; details: probe phenacetin (O-deethylation), read-out: Activity
T4 sequence (P05177 whole entry): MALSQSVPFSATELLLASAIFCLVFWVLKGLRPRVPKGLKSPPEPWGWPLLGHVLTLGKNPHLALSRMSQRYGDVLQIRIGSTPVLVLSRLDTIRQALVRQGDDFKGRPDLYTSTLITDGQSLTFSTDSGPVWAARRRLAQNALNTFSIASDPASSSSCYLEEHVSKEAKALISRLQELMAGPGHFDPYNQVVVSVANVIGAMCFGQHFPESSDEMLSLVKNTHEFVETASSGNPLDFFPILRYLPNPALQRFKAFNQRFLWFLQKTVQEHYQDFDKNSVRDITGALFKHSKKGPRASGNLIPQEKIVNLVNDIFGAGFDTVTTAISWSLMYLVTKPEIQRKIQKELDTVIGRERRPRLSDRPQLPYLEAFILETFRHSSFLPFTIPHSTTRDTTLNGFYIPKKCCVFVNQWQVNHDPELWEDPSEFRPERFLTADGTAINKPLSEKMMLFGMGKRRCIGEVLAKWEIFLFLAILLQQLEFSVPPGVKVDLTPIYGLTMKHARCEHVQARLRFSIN

Estrogen receptor = target: T5, Estrogen receptor (Homo sapiens, UniProt P03372)
T5 sequence (P03372 whole entry): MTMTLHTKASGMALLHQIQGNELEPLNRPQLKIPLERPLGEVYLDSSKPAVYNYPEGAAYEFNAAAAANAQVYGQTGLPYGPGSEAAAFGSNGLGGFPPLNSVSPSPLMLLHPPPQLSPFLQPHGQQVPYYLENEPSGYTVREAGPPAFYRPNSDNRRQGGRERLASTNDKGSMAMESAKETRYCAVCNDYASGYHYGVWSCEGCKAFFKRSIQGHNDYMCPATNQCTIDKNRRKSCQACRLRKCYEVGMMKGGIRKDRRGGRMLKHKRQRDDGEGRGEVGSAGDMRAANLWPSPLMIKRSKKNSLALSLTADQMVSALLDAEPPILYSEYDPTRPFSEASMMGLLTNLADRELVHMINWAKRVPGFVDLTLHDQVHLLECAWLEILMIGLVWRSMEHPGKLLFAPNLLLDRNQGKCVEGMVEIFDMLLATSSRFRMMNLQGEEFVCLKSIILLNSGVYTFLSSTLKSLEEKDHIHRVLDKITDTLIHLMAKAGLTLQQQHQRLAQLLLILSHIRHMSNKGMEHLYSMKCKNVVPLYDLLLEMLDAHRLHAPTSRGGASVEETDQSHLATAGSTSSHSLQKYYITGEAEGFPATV
Description: Inhibition of fluorescien-conjugated coactivator PGC1a binding to ERalpha (unknown origin) after 1 hr by TR-FRET assay

IC50 [1] [µM] | activity at 10 µM (CYP2C9) [%] | activity at 10 µM (CYP2D6) [%] | remaining at 0.5 h, 1 µM (in vitro [2]) [%] | activity at 10 µM (CYP3A4) [%] | IC50 [3] [µM] | Papp at 5 h, 10 µM [4] [×10⁻⁶ cm/s] | IC50 [5] [µM] | remaining at 0.5 h, 1 µM (in vitro [6]) [%] | remaining at 0.5 h, 1 µM [7] [%] | activity at 10 µM (CYP2C19) [%] | remaining at 0.5 h, 1 µM (in vitro [8]) [%] | IC50 [9] [µM] | activity at 10 µM (CYP1A2) [%] | IC50 (Estrogen receptor) [µM] | Structure (SMILES)
0.079 | 90 | 98 | 10 | 93 | 0.18 | 1.02 | > 10 | 18 | 22 | 70 | 32 | > 10 | 82 | 0.875 | CCN(CC)CCOc1ccc(/C(=C(/CCCO)c2ccccc2)c2ccc(O)cc2)cc1.Cl
0.187 | 44 | 89 | 20 | 85 | 0.19 | 0.03 | > 10 | 83 | 76 | 76 | 79 | > 10 | 91 | 3.34 | CNCCOc1ccc(/C(=C(/CCCO)c2ccccc2)c2ccc(O)cc2)cc1.Cl
0.669 | 60 | > 100 | 16 | > 100 | 0.27 | 9.94 | > 10 | 59 | 13 | > 100 | 25 | > 10 | > 100 | > 10 | Cc1ccc(/C(=C(\CCCO)c2ccccc2)c2ccc(OCCN(C)C)cc2)cc1.Cl
